# In BindingDB's records for doi:10.7270/Q2WS8RN8 (The Scripps Research Institute Molecular Screening Center, 2008):
# Target: T1, Signal transducer and activator of transcription 1-alpha/beta (Homo sapiens, UniProt P42224)
# T1 sequence (P42224 whole entry): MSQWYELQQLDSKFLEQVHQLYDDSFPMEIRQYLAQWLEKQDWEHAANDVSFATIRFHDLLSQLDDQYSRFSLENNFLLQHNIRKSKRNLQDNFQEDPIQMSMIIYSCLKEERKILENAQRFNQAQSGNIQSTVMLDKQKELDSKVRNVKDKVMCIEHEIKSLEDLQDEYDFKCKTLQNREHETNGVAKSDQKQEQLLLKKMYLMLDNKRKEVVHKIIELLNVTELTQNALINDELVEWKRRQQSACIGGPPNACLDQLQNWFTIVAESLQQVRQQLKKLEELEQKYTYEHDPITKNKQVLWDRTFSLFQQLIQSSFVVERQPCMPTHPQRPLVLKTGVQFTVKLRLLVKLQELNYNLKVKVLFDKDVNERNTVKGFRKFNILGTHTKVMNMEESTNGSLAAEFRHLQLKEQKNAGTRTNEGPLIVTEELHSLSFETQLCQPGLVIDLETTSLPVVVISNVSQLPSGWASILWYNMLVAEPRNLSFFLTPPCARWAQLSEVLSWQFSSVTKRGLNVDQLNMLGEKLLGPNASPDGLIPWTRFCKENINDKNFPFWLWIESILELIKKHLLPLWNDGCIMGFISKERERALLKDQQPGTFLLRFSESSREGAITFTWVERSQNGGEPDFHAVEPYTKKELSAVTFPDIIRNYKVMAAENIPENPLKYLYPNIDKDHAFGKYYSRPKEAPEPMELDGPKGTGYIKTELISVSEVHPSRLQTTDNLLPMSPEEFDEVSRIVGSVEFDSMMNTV
# Experiment: PubChem AID 1396
smiles,measurement,value
CCN1C(=O)C(=CNNC(=O)c2ccncc2)C(=O)N(CC)C1=S [SMR000218837],IC50,4.42 µM
